Results as given in patent US10428060B2, “PI-kinase inhibitors with anti-infective activity” (The Board of Trustees of the Leland Stanford Junior …, priority 2011, dated 2019).
Entries after “also recorded” stand apart in the source; their conditions may differ.

Legend:
PI3KC2B = PI3KC2B (Homo sapiens, UniProt O00750); assay: PI3KC2B kinase assay; format: biochemical
Experimental: (§1) PI-kinase assay: Compounds are tested in C.1.1. PI kinase assays as described by Shokat et al., “A membrane capture assay for lipid kinase activity.” Nat. Protoc. 2007; 2(10):2459-66.

PI3K p110g = target: T1, PI3K p110g (Homo sapiens, UniProt P48736); assay: PI3K p110g kinase assay; format: biochemical
T1 construct: purchased Millipore
Experimental: (§2) In the assays described here, p110α-p85 complex and p110γ were acquired from Millipore. Assays were performed with Lα-phosphatidylinositol (Avanti) as described in Knight et al. Nat Protoc. 2007; 2 (10):2459-66. Inhibitor series were prepared 10% DMSO as 5× stocks for the assay. Assays of HsVps34 were performed as described in Knight et al, except that the final assay buffer composition used was changed to 20 mM HEPES 7.5, 100 mM NaCl, 3 mM MgCl, 1 mg/mL PI and 44 nM hvps34 was used in the assay. […] COS-7 cells were cultured in 10 cm dishes and transfected at 70% confluence with 10 μg of plasmid DNA (HA-tagged bovine PI4KIIIβ, HA-tagged human PI4KIIIα) using Lipofectamine 2000 and 5 ml Opti-MEM following the manufacturer's instructions. After 5 hours the transfection medium was replaced with 10 ml complete DMEM. 36 hrs post transfection, cells were washed once with 5 ml PBS (pH 7.4) and lysed in 1 ml of lysis buffer (1) on ice. Lysates were collected by scraping and after 15 min they were centrifuged at 13,000 rpm for 10 min. To the lysates was added 200 μl of protein G Sepharose 4 fast flow beads that were prewashed with PBS and lysis buffer and 2 μg of anti-HA antibody. The tubes were then incubated overnight at 4 degrees C. in a tube rotator. The Sepharose beads in the lysate were washed twice with 150 mM NaCl in RIPA buffer, twice with RIPA buffer and once with kinase buffer (50 mM Tris/HCl, pH 7.5, 20 mM MgCl2, 1 mM EGTA, 1 mM PtdIns, 0.4% Triton X-100, 0.5 mg/mL BSA) and finally the beads were resuspended in 200 μL kinase buffer. Kinase reactions were run in a mixture of 45 μL of PI buffer (1 mM PI in kinase buffer), 10 μL of immunoprecipitated beads, 2 µL of inhibitors (dissolved and diluted in DMSO) or DMSO and 5 μL of [γ-^32P]-ATP (1 mM and 2 μCi/tube). The immunoprecipitates in PI buffer were pre-incubated with the drugs for 20 min prior the initiation of kinase reaction by adding ATP and the reactions were carried out for 30 min in 15 ml polypropolyne tubes. Reactions were terminated by addition of 3 ml of CHCl3:CH3OH:HCl (200:100:0.75) followed by 0.6 ml of 0.6N HCl to induce phase separation. The mixtures were vortexed, centrifuged at 2000 rpm for 2 min and the upper phase was discarded. To the lower phase was added 1.5 ml of CHCl3:CH3OH:0.6N HCl (3:48:47) and the mixture vortexed and centrifuged at 2000 rpm for 2 min. The lower phase was then transferred to counting vials and evaporated. Samples were counted in a scintillation beta counter after adding 5 ml of Instafluor (Perkin-Elmer).
as §1

[1] = test system: PI(4)P and PI(4,5)P2 pools in Huh7.5 cells; assay: Immunofluorescence of intracellular PI-4 and PIP2 pools in Huh7.5 cells; format: cell-based
Experimental: To further confirm its mechanism of action the effect of (1) on PI-4 levels was determined in cells using immunofluorescence to monitor the intracellular localized pools of PI-4. The effect of (1) on intracellular pools of PIP2 was tested, which were predicted to be similarly sensitive to inhibition using (1). […] Uninfected Huh7.5 cells or HCV-infected Huh7.5 cells were used.

PI4KIIIA = target: T2, PI4KIIIA (Homo sapiens, UniProt P42356); assay: PI4KIIIA kinase assay; format: biochemical
T2 construct: made in house; host or cells: COS-7 cells, transient transfection, anti-HA immunoprecipitate on protein G Sepharose beads
Experimental: as §2, with “Reactions were terminated by addition of 3 ml of CHCl3:CH3OH:HCl (200:100:0.75) followed by 0.6 ml of 0.6N HCl to induce phase separation. The mixtures were vortexed, centrifuged at 2000 rpm for 2 min and the upper phase was discarded. To the lower phase was added 1.5 ml of CHCl3:CH3OH:0.6N HCl (3:48:47) and the mixture vortexed and centrifuged at 2000 rpm for 2 min. The lower phase was then transferred to counting vials and evaporated.” left out, “(Perkin-Elmer). […]” for “(Perkin-Elmer).”

PI3K p110a = target: T3, PI3K p110a (Homo sapiens, UniProt P42336); assay: PI3K p110a kinase assay; format: biochemical
T3 construct: purchased Millipore
Experimental: In the assays described here, p110α-p85 complex and p110γ were acquired from Millipore. Assays were performed with Lα-phosphatidylinositol (Avanti) as described in Knight et al. Nat Protoc. […] Inhibitor series were prepared 10% DMSO as 5× stocks for the assay. […] COS-7 cells were cultured in 10 cm dishes and transfected at 70% confluence with 10 μg of plasmid DNA (HA-tagged bovine PI4KIIIβ, HA-tagged human PI4KIIIα) using Lipofectamine 2000 and 5 ml Opti-MEM following the manufacturer's instructions. After 5 hours the transfection medium was replaced with 10 ml complete DMEM. 36 hrs post transfection, cells were washed once with 5 ml PBS (pH 7.4) and lysed in 1 ml of lysis buffer (1) on ice. […] To the lysates was added 200 μl of protein G Sepharose 4 fast flow beads that were prewashed with PBS and lysis buffer and 2 μg of anti-HA antibody. The tubes were then incubated overnight at 4 degrees C. in a tube rotator. […] Kinase reactions were run in a mixture of 45 μL of PI buffer (1 mM PI in kinase buffer), 10 μL of immunoprecipitated beads, 2 µL of inhibitors (dissolved and diluted in DMSO) or DMSO and 5 μL of [γ-^32P]-ATP (1 mM and 2 μCi/tube). […] Samples were counted in a scintillation beta counter after adding 5 ml of Instafluor (Perkin-Elmer). […]

PI4KIIIB = target: T4, PI4KIIIB (Bos taurus, UniProt O02810); assay: PI4KIIIB kinase assay; format: biochemical, bovine
T4 construct: made in house; host or cells: COS-7 cells, transient transfection, anti-HA immunoprecipitate on protein G Sepharose beads
Experimental: as §2, with “2007; 2 (10):2459-66.” left out, “for” for “for the assay. Assays of HsVps34 were performed as described in Knight et al, except that the final assay buffer composition used was changed to 20 mM HEPES 7.5, 100 mM NaCl, 3 mM MgCl, 1 mg/mL PI and 44 nM hvps34 was used in”, “Lysates were collected by scraping and after 15 min they were centrifuged at 13,000 rpm for 10 min.” left out, “The Sepharose beads in the lysate were washed twice with 150 mM NaCl in RIPA buffer, twice with RIPA buffer and once with kinase buffer (50 mM Tris/HCl, pH 7.5, 20 mM MgCl2, 1 mM EGTA, 1 mM PtdIns, 0.4% Triton X-100, 0.5 mg/mL BSA) and finally the beads were resuspended in 200 μL kinase buffer.” left out
PI-kinase assay: Compounds are tested in C.1.1. PI kinase assays as described by Shokat et al., “A membrane capture assay for lipid kinase activity.” Nat. Protoc.

HCV genotype 2a = assay: microbe, parasite or virus in culture; format: cell-based; conditions: Hepatitis C virus, Huh7.5, read-out: HCV2a EC50
HRV = assay: Rhinovirus antiviral assay; format: cell-based; conditions: Human rhinovirus sp.
[2] = immunofluorescence, 250 nM, 500 nM or 1 uM, uninfected or HCV-infected Huh7.5 cells

T1 sequence (P48736 whole entry): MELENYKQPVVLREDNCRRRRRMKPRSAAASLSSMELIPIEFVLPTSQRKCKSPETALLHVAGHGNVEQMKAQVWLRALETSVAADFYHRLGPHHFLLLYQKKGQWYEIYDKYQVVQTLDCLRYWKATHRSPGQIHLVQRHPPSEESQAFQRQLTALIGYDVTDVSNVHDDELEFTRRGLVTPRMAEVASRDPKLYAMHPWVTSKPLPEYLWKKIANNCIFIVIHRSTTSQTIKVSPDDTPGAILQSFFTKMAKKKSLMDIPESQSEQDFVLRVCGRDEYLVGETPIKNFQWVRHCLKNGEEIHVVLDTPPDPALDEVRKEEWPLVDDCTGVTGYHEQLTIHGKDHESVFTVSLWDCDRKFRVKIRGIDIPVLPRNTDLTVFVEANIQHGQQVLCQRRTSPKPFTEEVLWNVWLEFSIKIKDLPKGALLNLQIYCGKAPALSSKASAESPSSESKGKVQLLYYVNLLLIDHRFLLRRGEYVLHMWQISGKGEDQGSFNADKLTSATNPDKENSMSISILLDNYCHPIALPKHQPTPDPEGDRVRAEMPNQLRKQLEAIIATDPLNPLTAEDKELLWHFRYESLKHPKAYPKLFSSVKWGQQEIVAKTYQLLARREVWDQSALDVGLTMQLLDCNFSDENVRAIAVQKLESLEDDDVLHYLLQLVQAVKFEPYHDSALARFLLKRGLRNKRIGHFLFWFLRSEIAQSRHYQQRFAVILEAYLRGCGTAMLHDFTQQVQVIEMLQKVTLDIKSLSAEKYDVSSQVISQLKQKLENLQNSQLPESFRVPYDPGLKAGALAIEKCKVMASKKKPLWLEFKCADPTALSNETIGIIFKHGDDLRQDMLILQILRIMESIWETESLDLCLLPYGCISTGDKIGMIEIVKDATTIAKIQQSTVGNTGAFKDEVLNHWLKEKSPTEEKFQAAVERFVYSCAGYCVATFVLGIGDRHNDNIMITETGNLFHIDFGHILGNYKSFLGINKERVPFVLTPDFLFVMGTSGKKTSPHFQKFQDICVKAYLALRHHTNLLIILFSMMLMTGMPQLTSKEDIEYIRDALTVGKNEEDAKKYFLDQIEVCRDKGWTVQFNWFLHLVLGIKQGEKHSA
Sequence of PI3KC2B (O00750 whole entry): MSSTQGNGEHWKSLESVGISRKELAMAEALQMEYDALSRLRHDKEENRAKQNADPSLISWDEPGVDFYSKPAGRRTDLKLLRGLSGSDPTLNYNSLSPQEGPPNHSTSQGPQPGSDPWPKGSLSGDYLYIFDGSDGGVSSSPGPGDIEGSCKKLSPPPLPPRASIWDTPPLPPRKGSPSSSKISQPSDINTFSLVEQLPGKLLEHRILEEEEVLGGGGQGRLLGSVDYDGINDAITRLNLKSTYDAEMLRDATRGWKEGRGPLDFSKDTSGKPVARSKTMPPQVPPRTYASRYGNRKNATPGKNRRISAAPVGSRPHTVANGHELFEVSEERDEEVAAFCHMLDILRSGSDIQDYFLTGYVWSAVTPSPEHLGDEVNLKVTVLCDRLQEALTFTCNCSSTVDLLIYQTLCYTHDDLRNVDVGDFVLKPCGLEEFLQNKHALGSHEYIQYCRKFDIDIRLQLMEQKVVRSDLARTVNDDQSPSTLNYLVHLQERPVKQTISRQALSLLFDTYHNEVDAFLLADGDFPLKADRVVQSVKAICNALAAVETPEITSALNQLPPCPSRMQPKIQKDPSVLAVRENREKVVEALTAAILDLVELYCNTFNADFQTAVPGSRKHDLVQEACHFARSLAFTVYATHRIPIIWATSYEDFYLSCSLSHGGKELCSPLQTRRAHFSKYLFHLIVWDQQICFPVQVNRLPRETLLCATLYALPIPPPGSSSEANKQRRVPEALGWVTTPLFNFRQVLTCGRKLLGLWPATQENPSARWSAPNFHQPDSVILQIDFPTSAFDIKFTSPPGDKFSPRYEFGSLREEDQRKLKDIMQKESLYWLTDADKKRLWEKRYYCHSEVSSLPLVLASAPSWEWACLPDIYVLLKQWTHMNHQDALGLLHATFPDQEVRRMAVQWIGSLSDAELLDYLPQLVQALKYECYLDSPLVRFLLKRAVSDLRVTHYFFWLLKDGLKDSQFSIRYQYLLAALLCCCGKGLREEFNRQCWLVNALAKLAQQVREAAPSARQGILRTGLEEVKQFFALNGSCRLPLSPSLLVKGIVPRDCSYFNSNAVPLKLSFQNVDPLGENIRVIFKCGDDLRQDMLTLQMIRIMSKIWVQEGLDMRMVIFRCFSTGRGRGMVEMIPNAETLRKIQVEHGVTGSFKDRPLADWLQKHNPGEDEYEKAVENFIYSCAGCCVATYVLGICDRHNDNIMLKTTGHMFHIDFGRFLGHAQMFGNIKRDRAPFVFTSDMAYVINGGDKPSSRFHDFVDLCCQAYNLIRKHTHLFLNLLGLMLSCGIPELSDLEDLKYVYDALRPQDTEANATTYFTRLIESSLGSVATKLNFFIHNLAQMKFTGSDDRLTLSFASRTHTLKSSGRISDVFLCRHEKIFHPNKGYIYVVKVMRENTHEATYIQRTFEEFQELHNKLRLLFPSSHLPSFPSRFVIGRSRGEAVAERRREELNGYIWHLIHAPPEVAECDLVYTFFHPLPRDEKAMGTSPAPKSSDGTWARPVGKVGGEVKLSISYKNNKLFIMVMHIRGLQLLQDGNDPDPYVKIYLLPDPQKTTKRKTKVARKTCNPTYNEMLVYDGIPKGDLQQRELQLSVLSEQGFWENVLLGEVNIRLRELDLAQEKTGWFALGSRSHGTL
T4 sequence (O02810 whole entry): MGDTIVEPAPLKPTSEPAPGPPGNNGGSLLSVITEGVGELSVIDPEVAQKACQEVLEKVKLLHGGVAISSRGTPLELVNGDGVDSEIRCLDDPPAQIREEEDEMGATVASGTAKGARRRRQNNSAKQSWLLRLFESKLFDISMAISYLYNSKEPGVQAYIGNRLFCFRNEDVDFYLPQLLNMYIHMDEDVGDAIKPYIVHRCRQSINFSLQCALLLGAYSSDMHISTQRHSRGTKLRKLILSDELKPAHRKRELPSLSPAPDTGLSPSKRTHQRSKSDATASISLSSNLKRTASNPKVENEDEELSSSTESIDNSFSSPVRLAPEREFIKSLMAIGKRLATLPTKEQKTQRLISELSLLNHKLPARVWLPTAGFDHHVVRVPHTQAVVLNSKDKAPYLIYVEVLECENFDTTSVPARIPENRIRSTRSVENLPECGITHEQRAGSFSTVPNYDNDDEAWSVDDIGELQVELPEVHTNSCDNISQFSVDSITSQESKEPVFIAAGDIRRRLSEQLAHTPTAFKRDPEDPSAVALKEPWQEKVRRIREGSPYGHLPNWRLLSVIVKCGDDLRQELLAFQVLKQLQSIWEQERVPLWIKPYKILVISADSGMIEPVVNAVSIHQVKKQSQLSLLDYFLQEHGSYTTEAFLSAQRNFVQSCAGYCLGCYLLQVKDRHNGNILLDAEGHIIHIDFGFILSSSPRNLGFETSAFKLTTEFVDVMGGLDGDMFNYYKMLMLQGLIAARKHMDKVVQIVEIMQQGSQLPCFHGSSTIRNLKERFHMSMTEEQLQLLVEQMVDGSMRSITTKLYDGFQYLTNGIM

SMILES	IC50 (PI3KC2B) [µM]	IC50 (PI3K p110g) [µM]	EC50 (HCV genotype 2a) [nM]	EC50 (HRV) [nM]	further results
COc1ccc(-c2sc(NC(C)C)nc2C)cc1S(=O)(=O)N[C@H]1CC[C@H](O)CC1 [Compound S-215, N-(4-hydroxycyclohexyl)-5-[2-(isopropylamino)-4-methyl-thiazol-5-yl]-2-methoxy-benzenesulfonamide]	> 10	> 10	–	–	–
COc1ccc(-c2sc(NC(=O)C3CCCC3)nc2C)cc1S(=O)(=O)Nc1ccc(O)cc1 [Compound 1]	–	–	–	–	Effect on the ER (calnexin co-staining) ([1]; control for non-specific effects): absence of any detectable effects on the ER; Effect on intracellular PI-4 (PI(4)P) levels [1, 2]: dose-dependent decrease; also recorded: decreases; Effect on intracellular PIP2 (PI(4,5)P2) levels [1, 2]: dose-dependent decrease; also recorded: decreases
COc1ccc(-c2sc(N[C@H](C)C3CCCCC3)nc2C)cc1S(=O)(=O)NC1CCCNC1 (stereo partly drawn) [Compound S-148, 5-[2-[[(1R)-1-cyclohexylethyl]amino]-4-methyl-thiazol-5-yl]-2-methoxy-N-(3-piperidyl)benzenesulfonamide]	–	> 10	–	–	IC50 (PI4KIIIA): 100 to 1000 nM; IC50 (PI3K p110a): > 10 µM; IC50 (PI4KIIIB): < 100 nM
COc1ccc(-c2sc(N[C@H](C)C3CCCCC3)nc2C)cc1S(=O)(=O)N[C@H]1CC[C@H](O)CC1 [Compound S-193, 5-[2-[[(1R)-1-cyclohexylethyl]amino]-4-methyl-thiazol-5-yl]-N-(4-hydroxycyclohexyl)-2-methoxy-benzenesulfonamide]	> 10	–	–	–	–
COc1ccc(-c2sc(NC(=O)CC3CCCC3)nc2C)cc1S(=O)(=O)Nc1ccc(O)cc1 [Compound S-1, 2-cyclopentyl-N-[5-[3-[(4-hydroxyphenyl)sulfamoyl]-4-methoxy-phenyl]-4-methyl-thiazol-2-yl]acetamide]	> 10	> 10	1 to 100	< 1	–
COc1ccc(-c2sc(NCC3CCCCC3)nc2C)cc1S(=O)(=O)NC1CCCNC1 (centres unmarked) [Compound S-115, 5-[2-(cyclohexylmethylamino)-4-methyl-thiazol-5-yl]-2-methoxy-N-(3-piperidyl)benzenesulfonamide]	–	–	100 to 1000	< 1	IC50 (PI4KIIIB): < 100 nM
COc1ccc(-c2sc(NC(=O)CC3CCOCC3)nc2C)cc1S(=O)(=O)Nc1ccc(O)cc1C [Compound S-231, N-[5-[3-[(4-hydroxy-2-methyl-phenyl)sulfamoyl]-4-methoxy-phenyl]-4-methyl-thiazol-2-yl]-2-tetrahydropyran-4-yl-acetamide]	> 10	> 10	–	–	–
COc1ncc(-c2sc(NC(=O)CC3CCOCC3)nc2C)cc1S(=O)(=O)Nc1ccc(F)cc1F [Compound S-260]	–	> 10	100 to 1000	1000 to 10000	–
COc1ccc(-c2sc(NC(C)(C)C)nc2C)cc1S(=O)(=O)N[C@H]1CC[C@H](O)CC1 [Compound S-216, 5-[2-(tert-butylamino)-4-methyl-thiazol-5-yl]-N-(4-hydroxycyclohexyl)-2-methoxy-benzenesulfonamide]	> 10	> 10	–	–	–
COc1ccc(-c2sc(NC(=O)CCC3CCCC3)nc2C)cc1S(=O)(=O)NC1CCNCC1 [Compound S-160, 3-cyclopentyl-N-[5-[4-methoxy-3-(4-piperidylsulfamoyl)phenyl]-4-methyl-thiazol-2-yl]propanamide]	> 10	> 10	–	–	–
